ChEMBL document CHEMBL4229384, “Success stories of natural product-based hybrid molecules for multi-factorial diseases” (Eur J Med Chem, 2018)
Converted amounts (≈) assume the structure as drawn.

Experiments:
[1] = target: Receptor tyrosine-protein kinase erbB-2 (Homo sapiens, UniProt P04626); test: Inhibition of HER2 in human MCF-7 cells; type: cell-based
Estrogen receptor = target: T1, Estrogen receptor (Homo sapiens, UniProt P03372); test: Inhibition of estrogen receptor in human MCF-7 cells; type: cell-based
T1 sequence (P03372 whole entry): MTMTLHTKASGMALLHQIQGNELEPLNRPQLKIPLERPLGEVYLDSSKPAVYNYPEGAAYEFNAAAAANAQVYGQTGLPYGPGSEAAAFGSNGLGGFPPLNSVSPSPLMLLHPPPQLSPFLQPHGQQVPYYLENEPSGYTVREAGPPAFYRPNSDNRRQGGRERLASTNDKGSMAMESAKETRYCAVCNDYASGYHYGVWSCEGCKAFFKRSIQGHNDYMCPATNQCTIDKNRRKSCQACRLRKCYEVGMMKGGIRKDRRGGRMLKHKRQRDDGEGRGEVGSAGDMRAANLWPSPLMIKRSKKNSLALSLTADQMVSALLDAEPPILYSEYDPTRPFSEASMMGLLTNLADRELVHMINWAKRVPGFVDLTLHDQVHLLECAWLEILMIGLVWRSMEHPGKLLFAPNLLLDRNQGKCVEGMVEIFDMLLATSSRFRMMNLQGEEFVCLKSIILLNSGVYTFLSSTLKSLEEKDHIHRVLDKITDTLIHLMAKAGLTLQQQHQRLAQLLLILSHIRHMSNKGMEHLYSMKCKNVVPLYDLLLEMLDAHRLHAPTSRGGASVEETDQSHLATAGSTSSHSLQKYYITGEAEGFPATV

Acetylcholinesterase [2] = target: T2, Acetylcholinesterase (Bos taurus, UniProt P23795); test: Inhibition of bovine erythrocyte AchE using acetylthiocholine iodide as substrate after 15 mins by spectrophotometric analysis
T2 sequence (P23795 whole entry): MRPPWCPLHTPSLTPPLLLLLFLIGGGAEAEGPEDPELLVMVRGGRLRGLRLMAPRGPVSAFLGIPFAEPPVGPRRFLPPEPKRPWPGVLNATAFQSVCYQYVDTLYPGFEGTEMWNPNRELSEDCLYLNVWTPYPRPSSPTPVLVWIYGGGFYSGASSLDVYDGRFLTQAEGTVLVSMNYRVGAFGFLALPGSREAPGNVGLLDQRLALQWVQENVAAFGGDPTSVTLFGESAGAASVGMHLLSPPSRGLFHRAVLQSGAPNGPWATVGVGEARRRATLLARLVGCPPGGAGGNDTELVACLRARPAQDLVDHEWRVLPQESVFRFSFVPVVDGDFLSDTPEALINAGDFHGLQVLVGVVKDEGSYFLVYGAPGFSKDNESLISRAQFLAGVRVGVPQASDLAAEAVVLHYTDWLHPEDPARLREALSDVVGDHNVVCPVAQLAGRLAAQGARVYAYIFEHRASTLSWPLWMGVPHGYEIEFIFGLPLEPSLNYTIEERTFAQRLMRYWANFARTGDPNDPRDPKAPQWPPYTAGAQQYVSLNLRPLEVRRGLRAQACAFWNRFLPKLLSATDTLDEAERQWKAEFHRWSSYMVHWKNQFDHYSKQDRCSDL

[3] = tested on: Mycobacterium tuberculosis; test: Antitubercular activity against Mycobacterium tuberculosis H37Rv; type: functional
L1210 = test: Antiproliferative activity against mouse L1210 cells after 2 to 3 days by Coulter counter method; type: functional, cell-based
Acetylcholinesterase [4] = target: Acetylcholinesterase (Electrophorus electricus, UniProt O42275); test: Inhibition of electric eel AChE using acetylthiocholine iodide as substrate measured for 120 secs by spectrophotometric analysis
Sequence of Acetylcholinesterase (Electrophorus electricus, UniProt O42275) (O42275 whole entry): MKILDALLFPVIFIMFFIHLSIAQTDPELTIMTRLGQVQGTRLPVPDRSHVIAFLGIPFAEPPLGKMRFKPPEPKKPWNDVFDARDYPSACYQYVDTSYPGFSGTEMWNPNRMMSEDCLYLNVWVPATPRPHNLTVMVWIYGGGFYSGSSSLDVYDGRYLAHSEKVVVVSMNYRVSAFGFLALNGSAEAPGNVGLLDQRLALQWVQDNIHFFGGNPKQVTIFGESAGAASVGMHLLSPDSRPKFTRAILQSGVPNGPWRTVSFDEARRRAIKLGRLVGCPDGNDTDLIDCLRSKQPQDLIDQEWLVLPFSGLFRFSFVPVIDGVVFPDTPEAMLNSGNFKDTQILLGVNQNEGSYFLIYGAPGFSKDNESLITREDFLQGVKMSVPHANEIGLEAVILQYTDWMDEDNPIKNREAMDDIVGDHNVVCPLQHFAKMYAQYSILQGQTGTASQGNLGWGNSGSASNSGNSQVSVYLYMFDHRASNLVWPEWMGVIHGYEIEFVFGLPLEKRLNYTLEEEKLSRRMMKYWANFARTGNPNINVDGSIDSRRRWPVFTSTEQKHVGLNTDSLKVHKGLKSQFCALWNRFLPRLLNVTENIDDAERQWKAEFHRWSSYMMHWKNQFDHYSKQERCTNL

DNA [5] = test: Binding affinity to human estrogen receptor DNA assessed as estrogen receptor PCR product formation; type: nucleic-acid assay
DNA [6] = test: Binding affinity to Ha-ras DNA (unknown origin) assessed as Ha-ras PCR product formation; type: nucleic-acid assay
UCLA P-3 = test: Antiproliferative activity against human UCLA-P3 cells; type: functional, cell-based
MOLT-4 = test: Antiproliferative activity against human MOLT4 cells; type: functional, cell-based

Sequence of Receptor tyrosine-protein kinase erbB-2 (P04626 whole entry): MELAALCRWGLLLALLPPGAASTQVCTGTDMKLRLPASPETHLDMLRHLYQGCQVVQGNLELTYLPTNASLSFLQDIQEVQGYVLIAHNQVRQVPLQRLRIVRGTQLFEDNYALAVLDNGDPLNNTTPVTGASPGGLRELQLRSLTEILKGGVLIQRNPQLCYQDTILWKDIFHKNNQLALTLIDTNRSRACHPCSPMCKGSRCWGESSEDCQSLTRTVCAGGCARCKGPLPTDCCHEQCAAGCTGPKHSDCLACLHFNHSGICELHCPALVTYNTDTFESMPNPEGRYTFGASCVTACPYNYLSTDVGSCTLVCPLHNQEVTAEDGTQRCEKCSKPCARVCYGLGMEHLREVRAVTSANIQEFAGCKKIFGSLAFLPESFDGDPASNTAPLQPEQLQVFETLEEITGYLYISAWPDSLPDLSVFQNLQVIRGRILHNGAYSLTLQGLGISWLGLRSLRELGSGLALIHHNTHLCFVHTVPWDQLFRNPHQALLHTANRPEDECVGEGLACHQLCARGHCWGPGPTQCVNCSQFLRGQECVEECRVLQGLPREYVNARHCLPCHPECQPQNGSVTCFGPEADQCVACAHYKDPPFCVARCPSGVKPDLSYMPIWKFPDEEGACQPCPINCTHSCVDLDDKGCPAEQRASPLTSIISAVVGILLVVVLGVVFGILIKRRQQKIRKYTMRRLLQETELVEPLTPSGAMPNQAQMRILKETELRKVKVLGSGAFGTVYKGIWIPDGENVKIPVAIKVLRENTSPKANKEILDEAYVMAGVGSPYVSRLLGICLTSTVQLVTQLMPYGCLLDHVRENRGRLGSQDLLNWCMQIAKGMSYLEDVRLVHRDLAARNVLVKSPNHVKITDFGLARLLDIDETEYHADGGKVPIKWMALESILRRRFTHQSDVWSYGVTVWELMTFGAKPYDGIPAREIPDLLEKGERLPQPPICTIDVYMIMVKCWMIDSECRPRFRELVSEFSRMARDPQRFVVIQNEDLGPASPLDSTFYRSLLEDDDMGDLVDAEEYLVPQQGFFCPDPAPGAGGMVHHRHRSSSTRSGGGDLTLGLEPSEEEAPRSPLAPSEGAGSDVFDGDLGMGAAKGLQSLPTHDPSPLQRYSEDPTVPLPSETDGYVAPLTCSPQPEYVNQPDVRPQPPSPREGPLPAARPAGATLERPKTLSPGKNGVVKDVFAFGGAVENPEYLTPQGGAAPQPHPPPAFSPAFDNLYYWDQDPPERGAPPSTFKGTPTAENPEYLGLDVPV

CO[C@H]1/C=C\C=C(/C)C(=O)NC2=CC(=O)C(NC/C=C/CCC[C@@H]3C[C@H]4[C@@H]5CCc6cc(O)ccc6[C@H]5CC[C@]4(C)[C@H]3O)=C(C[C@@H](C)C[C@H](OC)[C@H](O)[C@@H](C)/C=C(\C)[C@@H]1OC(N)=O)C2=O (stereo in doubt)
IC50 [1]: 100 nM
IC50 (Estrogen receptor): 80 nM

CC1CCC2CC(Cc3nc4ccccc4c(N)c32)C1 (configuration not stated)
IC50 (Acetylcholinesterase [2]): 1.3 nM

COC(=O)[C@]1(C)CCC[C@@]2(C)[C@@H]3CC[C@@]4(C)C[C@]3(CC[C@@H]21)C/C4=N\NC(=O)c1ccncc1
MIC [3]: 10 to 20 µg/mL (≈ 22.1 to 44.3 µM)

Cc1n[nH]c2c(O)cc3c(c12)C(CCl)CN3C(=O)c1cc(C(=O)Nc2cc(C(=O)Nc3cc(C(=O)Nc4cc(C(=O)NCCC(=N)N)n(C)c4)n(C)c3)n(C)c2)n(C)n1 (configuration not stated)
IC50 (L1210): 7400 nM

COc1ccc2c3c1O[C@H]1C[C@@H](O)CC[C@@]31CCN(CCCCCCCCN1CC[C@@]34C=C[C@H](O)C[C@@H]3Oc3c(OC)ccc(c34)C1)C2
IC50 (Acetylcholinesterase [4]): 230 nM

COc1cc2c(cc1OCCC(=O)Nc1cc(C(=O)Nc3cc(C(=O)Nc4cc(C(=O)NCCC(=N)N)n(C)c4)n(C)c3)n(C)c1)N=C[C@@H]1CCCN1C2=O
IC50 (DNA [5]): 8000 nM
IC50 (DNA [6]): 8000 nM

CCN[C@H]1CO[C@@H](O[C@H]2[C@H](OCOC[C@@]34C#CCCC#C[C@@H]5N(C(=O)OCCS(=O)(=O)c6ccccc6)c6ccccc6[C@]36O[C@@]56CCC4)O[C@H](C)[C@@H](NO[C@H]3C[C@H](O)[C@H](SC(=O)c4c(C)c(I)c(O[C@@H]5O[C@@H](C)[C@H](O)[C@@H](OC)[C@H]5O)c(OC)c4OC)[C@@H](C)O3)[C@@H]2O)C[C@@H]1OC
IC50 (UCLA P-3): 0.1 nM
IC50 (MOLT-4): 160 nM

CCC1CCC2CC(Cc3nc4ccccc4c(N)c32)C1 (configuration not stated)
IC50 (Acetylcholinesterase [2]): 1.15 nM

COC(=O)[C@]1(C)CCC[C@@]2(C)[C@@H]3CC[C@@]4(C)C[C@]3(CC[C@@H]21)C/C4=N\NC(=O)c1cccnc1
MIC [3]: 10 to 20 µg/mL (≈ 22.1 to 44.3 µM)

C[C@@]12CC[C@@H]3[C@@](CC[C@H]4[C@@]3(C)CCC[C@@]4(C)C(=O)O)(C/C1=N\NC(=O)c1cccnc1)C2
MIC [3]: 10 to 20 µg/mL (≈ 22.9 to 45.7 µM)

COC(=O)[C@]1(C)CCC[C@@]2(C)[C@@H]3CC[C@@]4(C)C[C@]3(CC[C@@H]21)C/C4=N\NC(=O)c1ccccn1
MIC [3]: 10 to 20 µg/mL (≈ 22.1 to 44.3 µM)

COc1ccc2c3c1O[C@H]1C[C@@H](O)CC[C@@]31CCN(CCCCCCN1CC[C@@]34C=C[C@H](O)C[C@@H]3Oc3c(OC)ccc(c34)C1)C2
IC50 (Acetylcholinesterase [4]): 450 nM

CCN[C@H]1CO[C@@H](O[C@H]2[C@H](OC[C@]34C#C/C=C\C#C[C@H]5N(C(=O)OCCS(=O)(=O)c6ccccc6)c6ccccc6[C@@]36O[C@]56CCC4)O[C@H](C)[C@@H](NO[C@H]3C[C@H](O)[C@H](SC(=O)c4c(C)c(I)c(O[C@@H]5O[C@@H](C)[C@H](O)[C@@H](OC)[C@H]5O)c(OC)c4OC)[C@@H](C)O3)[C@@H]2O)C[C@@H]1OC
IC50 (UCLA P-3): 1 nM
IC50 (MOLT-4): 1 nM
